The values below come from ChEMBL document CHEMBL1201862, “PubChem BioAssay data set” (2004).

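Compound exposure: 48 hours, 5 concentrations, 96-well plates. Here, GI50 denotes the concentration required for 50% inhibition of growth.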 Active and inactive are the calls of the source. Cut-off read from the data, not from the text of the source: active = GI50 up to about 1.1 µM and inactive = higher.

Common to all, as to assay: NCI anticancer screen, dose series, 48 h
Test [1] deals with NCI-H23.
For test [2], the system named is IGROV-1.
Test [3] has as its system EKVX.
Test [4] relates to SW-620.
Test [5] deals with COLO 205.
Test [6] concerns UO-31.
The subject of test [7] is UACC-257.
In test [8] the test system is HT-29.
The test system of test [9] is SF-295.
Test [10] has as its system KM12.
The subject of test [11] is TK-10.
The test system of test [12] is HCT-116.
Test [13] concerns SR.
The test system of test [14] is CAKI-1.
Test [15] concerns MOLT-4.
Test [16] deals with NCI-H522.
Test [17] relates to DU-145.
The subject of test [18] is Hs-578T.
For test [19], the system named is MDA-N.

For `O=C(Nc1ccccc1[N+](=O)[O-])C(=O)C(C(=O)c1ccccc1-c1ccccc1)C1OC(=O)c2ccccc21` (configuration not stated), the GI50 is 17.9 µM (inactive) in test [1]; 23.7 µM (inactive) in test [2]; 20.2 µM (inactive) in test [3]; 18.5 µM (inactive) in test [4]; 16.1 µM (inactive) in [5]; 15.6 µM (inactive) in test [6]. In addition, the GI50 in test [7] is 16.6 µM (inactive); in test [8], 24 µM (inactive); in test [9] it was 16.6 µM (inactive); in test [10], 16.2 µM (inactive); in test [11] it was 24 µM (inactive); in test [12], 18.2 µM (inactive). The GI50 was 8.43 µM (inactive) in test [13], 35.6 µM (inactive) in test [14], 16 µM (inactive) in test [15] and 12.5 µM (inactive) in [16].

Take `O=c1[nH]c2c(c(=O)[nH]1)SC(c1ccccc1)C2` (configuration not stated): the GI50 is > 100 µM (inactive) in test [1]; > 100 µM (inactive) in test [17]; > 100 µM (inactive) in test [2]; 72.1 µM (inactive) in test [3]; > 100 µM (inactive) in test [4]; > 100 µM (inactive) in test [5]. Moreover, the GI50 in test [6], in [7], in test [18], in test [8], in [9] and in [10] was > 100 µM (inactive) in each case. The GI50 in [12], in test [14], in [15], in [19] and in test [16] was > 100 µM (inactive) throughout.

Regarding `CCCCc1c2c(nc3c1CCc1cc(C=O)c(N)nc1-3)/C(=C/c1ccccc1)CCC2`, the GI50 in test [1] was > 100 µM (inactive); in [2], > 100 µM (inactive); in test [3], 48.4 µM (inactive); in [4], > 100 µM (inactive); in test [5] it was 17 µM (inactive); in test [6], > 100 µM (inactive). For the same compound, the GI50 in [7], in test [8], in test [9], in test [10], in test [11] and in test [12] was > 100 µM (inactive) in each case. For the same compound, the GI50 was 58.5 µM (inactive) in test [13], > 100 µM (inactive) in test [14], 52.2 µM (inactive) in [15] and > 100 µM (inactive) in [16].

Take `O=C1c2cccc3cc([N+](=O)[O-])cc(c23)C(=O)N1CCNCCNCCNCCN1C(=O)c2cccc3cc([N+](=O)[O-])cc(c23)C1=O`: the GI50 was 0.00193 µM (active) in test [1]; 0.01 µM (active) in test [2]; 0.112 µM (active) in test [3]; < 0.001 µM (active) in test [4]; 0.01 µM (active) in [5]; 0.033 µM (active) in test [6]. The GI50 was 0.0311 µM (active) in test [7]; < 0.001 µM (active) in test [8]; < 0.001 µM (active) in test [9]; < 0.001 µM (active) in test [10]; 0.092 µM (active) in test [11]; < 0.001 µM (active) in [12]. For the same compound, the GI50 in [13] is 0.01 µM (active); in test [14], < 0.001 µM (active); in test [15] it was < 0.001 µM (active); in test [16] it was 0.116 µM (active).

As to `N#CC(C(=O)C(=O)Nc1c(Cl)cccc1Cl)c1ccccc1` (configuration not stated), the GI50 in test [1], in test [2], in test [3], in test [4], in test [5] and in test [6] was > 10 µM (inactive) in each case. Besides, the GI50 was > 10 µM (inactive) in test [7]; > 10 µM (inactive) in test [8]; 0.302 µM (active) in test [9]; > 10 µM (inactive) in [10]; > 10 µM (inactive) in test [11]; > 10 µM (inactive) in test [12]. Besides, the GI50 in [13], in test [14], in test [15] and in [16] was > 10 µM (inactive) throughout.

With `CCOC(=O)C1=C(C)N(c2ccc(C)cc2)C2(O)C=CC(O)=C3C(=O)c4ccccc4C(=O)C312` (configuration not stated), the GI50 in [1] was 38.4 µM (inactive); in test [17] it was 23.6 µM (inactive); in test [2], 19.5 µM (inactive); in [3] it was 39.3 µM (inactive); in test [4] it was 28.1 µM (inactive); in [5], 32.4 µM (inactive). For the same compound, the GI50 in [6] was 17.7 µM (inactive); in [7] it was 22.9 µM (inactive); in test [8], 25 µM (inactive); in [9] it was 68.1 µM (inactive); in [10], 35.6 µM (inactive); in test [11], 44 µM (inactive). The GI50 in test [12] was 48.5 µM (inactive); in [13] it was 0.635 µM (active); in [14], 32.2 µM (inactive); in test [15], 0.374 µM (active); in test [19], 21.1 µM (inactive); in test [16], 16.1 µM (inactive).

Take `CCC12C=CCN3CCC4(C(=C(C(=O)OC)[C@@H]1O)Nc1ccccc14)C32` (some centres not stated): the GI50 in test [1] was 1.85 µM (inactive); in test [2] it was 1.83 µM (inactive); in test [3] it was 1.85 µM (inactive); in [4] it was 1.72 µM (inactive); in test [5], 1.81 µM (inactive); in [6] it was 2.4 µM (inactive). Besides, the GI50 was 1.1 µM (active) in [7]; 1.98 µM (inactive) in test [8]; 2.05 µM (inactive) in [9]; 1.7 µM (inactive) in test [10]; 2.24 µM (inactive) in test [11]; 1.57 µM (inactive) in [12]. The GI50 is 1.78 µM (inactive) in test [13], 2.29 µM (inactive) in test [14], 2.43 µM (inactive) in [15] and 1.61 µM (inactive) in [16].

On to `Cc1c(Cl)cccc1NC(=O)C(=O)c1c(O)c2ccc(O)cc2oc1=O`, for which the GI50 in test [1], in test [2], in test [3], in test [4], in test [5] and in test [6] was > 100 µM (inactive) each time. The GI50 in test [7], in test [8], in test [9], in [10], in [11] and in [12] was > 100 µM (inactive) in each case. Also, the GI50 in [13], in test [14], in [15] and in [16] was > 100 µM (inactive) throughout.

As to `CC(=O)OCSc1ncnc2c1ncn2CN1CCOCC1`, the GI50 in test [1] was 11.9 µM (inactive); in test [2], 52.5 µM (inactive); in test [3], > 100 µM (inactive); in [4], 28.8 µM (inactive); in test [5] it was 18.8 µM (inactive); in [6], 8.38 µM (inactive). Besides, the GI50 in [7] was 53.5 µM (inactive); in test [8] it was 13.9 µM (inactive); in test [9] it was 49.9 µM (inactive); in test [10], 51.1 µM (inactive); in [11], 7.05 µM (inactive); in test [12], 14.4 µM (inactive). Also, the GI50 in test [13] is 6.14 µM (inactive); in test [14], 6.37 µM (inactive); in [15], 4.12 µM (inactive); in test [16], 3.27 µM (inactive).
